In patent US12398107B2, “Fungicidal nitroanilino substituted pyrazoles” (FMC Corporation, priority 2018, dated 2025):

Experiments:
Assay type in all cases: in vivo
Septoria tritici = assay: Test A: wheat leaf blotch, preventive spray on wheat seedlings; details: 50 ppm, 100 = 100% disease control, 0 = no control relative to controls
Outline: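 Preventive test: seedlings sprayed to run-off one day before Septoria tritici spore inoculation, with ppm doses in acetone/water containing 250 ppm PEG400. After 48 h at 24 °C in saturated air and 17 days at 20 °C, plants were scored 0–100 for disease control versus untreated controls.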

Alternaria solani = assay: Test F: tomato early blight, preventive spray on tomato seedlings; details: 50 ppm, 100 = 100% disease control, 0 = no control
Outline: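 Preventive test: one day after seedlings were sprayed to run-off with ppm-level suspensions (acetone/water 50/50, 250 ppm PEG400), A. solani spore inoculation followed. Incubation was 48 h at 27° C in saturated air plus 3 days at 20° C; disease control was scored visually versus controls (100 = full control).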

Botrytis cinerea = assay: Test E: tomato Botrytis, preventive spray on tomato seedlings; details: 50 ppm, 100 = 100% disease control, 0 = no control
Outline: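 Preventive test: spore inoculation one day after run-off spraying of compound suspension (3% acetone, acetone/water 50/50, 250 ppm PEG400). Incubation 20 °C saturated humidity for 48 h, followed by 3 days at 24 °C growth chamber; disease control scored visually, 100 = full control.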

Phakopsora pachyrhizi = assay: Test D: Asian soybean rust, preventive spray on soybean seedlings; details: 50 ppm, 100 = 100% disease control, 0 = no control
Outline: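 Soybean seedlings sprayed to run-off with compound suspension (ppm, in 50/50 acetone/water with 250 ppm PEG400), inoculated next day with P. pachyrhizi spores, held 24 h saturated at 22°C then 8 days at 22°C. Visual rating 0-100% disease control relative to controls.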

[1] = test system: Puccinia recondita f. sp. tritici; assay: Test B: wheat leaf rust, preventive spray on wheat seedlings; details: 50 ppm, 100 = 100% disease control, 0 = no control relative to controls
Outline: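 Wheat seedlings got a run-off spray (ppm, acetone/water 50/50, 250 ppm PEG400) and one day later a spore inoculum. After 24 h at 20° C. in saturated air and 7 days at 20° C., disease was scored as % control relative to controls (100 = full control).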

[2] = test system: Blumeria graminis f. sp. tritici; assay: Test C: wheat powdery mildew, preventive spray on wheat seedlings; details: 50 ppm, rated after 8 days, 100 = 100% disease control, 0 = no control
Outline: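 Wheat seedlings got a run-off spray of test suspension (ppm in acetone/water 50/50, 250 ppm PEG400, acetone 3% of volume), then spore-dust inoculation with wheat powdery mildew one day later. After 8 days' growth-chamber incubation at 20° C, disease control scored visually on a 0–100 scale versus untreated controls.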

Structure (SMILES) | Test A disease control rating (wheat leaf blotch) (Septoria tritici) | Test F disease control rating (tomato early blight) (Alternaria solani) | Test E disease control rating (tomato Botrytis) (Botrytis cinerea) | Test D disease control rating (Asian soybean rust) (Phakopsora pachyrhizi) | Test B disease control rating (wheat leaf rust) [1] | Test C disease control rating (wheat powdery mildew) [2]
CCc1nn(C)c(Nc2ccc(C)cc2[N+](=O)[O-])c1-c1ccc(F)cc1F [Compound 175] | 100% | 0% | 88% | 0% | 86% | 79%
Cc1nn(C)c(Nc2c(Cl)cc(F)cc2[N+](=O)[O-])c1-c1ccc(Cl)cc1F [Compound 176] | 100% | 0% | 9% | 0% | 97% | 0%
Cc1cccc([N+](=O)[O-])c1Nc1c(-c2ccc(F)cc2F)c(C)nn1C [Compound 177] | 100% | 9% | 100% | 0% | 97% | 50%
Cc1cc(F)c(Nc2c(-c3ccc(F)cc3F)c(C)nn2C)c([N+](=O)[O-])c1 [Compound 178] | 100% | 100% | 100% | 97% | 100% | 99%
COc1ccc(Nc2c(-c3ccc(C#N)cc3F)c(C)nn2C)c([N+](=O)[O-])c1 [Compound 179] | 100% | 85% | 99% | 0% | 96% | 93%
COc1ccc(Nc2c(-c3ccc(C#N)cc3Br)c(C)nn2C)c([N+](=O)[O-])c1 [Compound 180] | 100% | 98% | 99% | 0% | 98% | 79%
Cc1cc(Cl)c(Nc2c(-c3ccc(F)cc3Br)c(C)nn2C)c([N+](=O)[O-])c1 [Compound 181] | 100% | 99% | 99% | 78% | 100% | 99%
COc1ccc(-c2c(C)nn(C)c2Nc2c(F)cc(Br)cc2[N+](=O)[O-])c(Cl)c1 [Compound 182] | 100% | 99% | 100% | 0% | 99% | 76%
COc1ccc(-c2c(C)nn(C)c2Nc2c(C)cccc2[N+](=O)[O-])c(Cl)c1 [Compound 183] | 100% | 58% | 100% | 0% | 99% | 78%
COc1ccc(-c2c(C)nn(C)c2Nc2c(Cl)cccc2[N+](=O)[O-])c(Cl)c1 [Compound 184] | 100% | 26% | 100% | 0% | 100% | 21%
